Source: patent publication US11166460B2, “α-amino acrylate microbicide, and preparation method therefor and uses thereof” (priority 2017, dated 2021)
In brackets after ≈: the same amount, converted by molar mass. Where two headings read alike, the source gives them in different places.

Experiments:
[1] = tested on: Sclerotinia sclerotiorum; test: microbe, parasite or virus in culture; assay type: cell-based; conditions: Sclerotinia sclerotiorum; for inhibition at 50 µg/mL: 50 μg/mL
[2] = tested on: Botrytis cinerea; test: Fungicidal activity, fungi growth rate method, BC; assay type: cell-based; conditions: Botrytis cinerea, 50 μg/mL
[3] = tested on: Pellicularia sasakii; test: Fungicidal activity, fungi growth rate method, PS; assay type: cell-based; conditions: 50 μg/mL
[4] = tested on: Cercospora arachidicola; test: Fungicidal activity, fungi growth rate method, CA; assay type: cell-based; conditions: Mycosphaerella arachidis, 50 μg/mL
[5] = tested on: tobacco mosaic virus (TMV); test: Anti-TMV inactivation activity (inactivation mode), compound mixed with TMV before inoculation of tobacco leaves; assay type: in vivo; conditions: Tobacco mosaic virus, read-out: Anti-TMV activity, Inactivation effect (inhibition)
[6] = tested on: Physalospora piricola; test: Fungicidal activity, fungi growth rate method, PP; assay type: cell-based; conditions: 50 μg/mL
[7] = tested on: tobacco mosaic virus (TMV); test: Anti-TMV inducing activity (induction mode), tobacco seedlings; assay type: in vivo; conditions: Tobacco mosaic virus, read-out: Anti-TMV activity, Induction effect (inhibition), 100 μg/mL, tobacco seedlings
[8] = tested on: tobacco mosaic virus (TMV); test: Anti-TMV curative activity (treatment mode), live friction inoculation on tobacco seedlings; assay type: in vivo; conditions: Tobacco mosaic virus, read-out: Anti-TMV activity, Curative effect (inhibition), 100 μg/mL, tobacco seedlings, checked on seventh day
[9] = tested on: tobacco mosaic virus (TMV); test: Anti-TMV protective activity (protection mode), live friction inoculation on tobacco seedlings; assay type: in vivo; conditions: Tobacco mosaic virus, read-out: Anti-TMV activity, Protection effect (inhibition)
[10] = tested on: Phytophthora infestans (Mont) de Bary; test: microbe, parasite or virus in culture; assay type: cell-based; conditions: Phytophthora infestans
[11] = tested on: Alternaria solani; test: Fungicidal activity, fungi growth rate method, AS; assay type: cell-based; conditions: Alternaria solani, 50 μg/mL
[12] = tested on: Rhizoctonia cerealis; test: Fungicidal activity, fungi growth rate method, RC; assay type: cell-based; conditions: Ceratobasidium cereale, 50 μg/mL
[13] = tested on: wheat Gibberella zeae; test: microbe, parasite or virus in culture; assay type: cell-based; conditions: Fusarium graminearum
[14] = read-out: Fungicidal activity, inhibition, SS
[15] = read-out: Fungicidal activity, inhibition, BC
[16] = read-out: Fungicidal activity, inhibition, PS
[17] = read-out: Fungicidal activity, inhibition, CA
[18] = read-out: Fungicidal activity, inhibition, PP
[19] = read-out: Fungicidal activity, inhibition, PI
[20] = read-out: Fungicidal activity, inhibition, AS
[21] = read-out: Fungicidal activity, inhibition, RC
[22] = read-out: Fungicidal activity, inhibition, GZ
[23] = read-out: Fungicidal activity (inhibition) against BC: Botrytis cinerea
[24] = read-out: Fungicidal activity (inhibition) against PI: Phytophthora infestans (Mont) de Bary
[25] = read-out: Fungicidal activity (inhibition) against AS: Alternaria solani
[26] = read-out: Fungicidal activity (inhibition) against GZ: wheat Gibberella zeae
[27] = read-out: Fungicidal activity (inhibition) against SS: Sclerotinia sclerotiorum

| SMILES | inhibition at 50 µg/mL [1, 14] | inhibition at 50 µg/mL [2, 15] | inhibition at 50 µg/mL [3, 16] | inhibition at 50 µg/mL [4, 17] | inhibition at 100 µg/mL [5] | inhibition at 50 µg/mL [6, 18] | inhibition at 100 µg/mL [7] | inhibition at 100 µg/mL [8] | inhibition at 100 µg/mL [9] | inhibition at 50 µg/mL [10, 19] | melting point | inhibition at 50 µg/mL [11, 20] | inhibition at 50 µg/mL [12, 21] | inhibition at 50 µg/mL [13, 22] | inhibition at 50 µg/mL [1, 27] | further results |
| --- | --- | --- | --- | --- | --- | --- | --- | --- | --- | --- | --- | --- | --- | --- | --- | --- |
| O=C(N/C(=C\c1ccc(F)cc1)C(=O)N1CCC(O)(c2ccc(Br)cc2)CC1)c1ccccc1 [Compound 17, (Z)-N-[1-[[4-(4-bromophenyl)-4-hydroxy-1-piperidinyl]carbonyl]-2-(4-fluorophenyl)ethenyl]-benzamide] | 67% | 10% | 15% | 23% | 1% | 3% | 3% | 0% | 33% | 27% | 266 to 268 °C | 28% | 10% | 16% |  |  |
| Cc1snnc1/C=C1\N=C(c2ccccc2)OC1=O [Compound 78, (4Z)-4-[4-(5-methyl-1,2,3-thiadiazol)ethenyl]-2-phenyl-1,3-oxazol-5-(4H)-one] | 53% | 26% | 3% | 21% | 47% | 15% | 68% | 0% | 0% | 26% | 149 to 151 °C | 29% | 18% | 57% |  | inhibition at 50 µg/mL [2, 23]: 26%; inhibition at 50 µg/mL [10, 24]: 26%; inhibition at 50 µg/mL [11, 25]: 29%; inhibition at 50 µg/mL [13, 26]: 57% |
| Cc1ccc(/C=C(\NC(=O)c2ccccc2)C(=O)N2CCC(O)(c3ccc(Br)cc3)CC2)cc1 [Compound 15, (Z)-N-[1-[[4-(4-bromophenyl)-4-hydroxy-1-piperidinyl]carbonyl]-2-(4-metylphenyl)ethenyl]benzamide] | 56% | 10% | 12% | 13% | 0% | 7% | 41% | 20% | 0% | 21% | 234 to 236 °C | 17% | 16% | 10% |  |  |
| O=C(NC1CCCCC1)/C(=C/c1ccccc1)NC(=O)c1ccccc1 [Compound 40, (Z)-N-[1-[(cyclohexylamino)carbonyl]-2-phenylethenyl]benzamide] | 56% | 10% | 6% | 10% | 0% | 0% | 45% | 0% | 0% | 11% | 204 to 206 °C | 13% | 10% | 11% | 56% | inhibition at 50 µg/mL [2, 23]: ≤ 20%; inhibition at 50 µg/mL ([3]; read-out: Fungicidal activity (inhibition) against PS: Pellicularia sasakii): < 30%; inhibition at 50 µg/mL ([4]; read-out: Fungicidal activity (inhibition) against CA: Cercospora arachidicola): < 25%; inhibition at 50 µg/mL ([6]; read-out: Fungicidal activity (inhibition) against PP: Physalospora piricola): < 20%; inhibition at 50 µg/mL [10, 24]: < 25%; inhibition at 50 µg/mL [11, 25]: < 30%; inhibition at 50 µg/mL ([12]; read-out: Fungicidal activity (inhibition) against RC: Rhizoctonia cerealis): < 20%; inhibition at 50 µg/mL [13, 26]: < 45% |
| CCOC(=O)c1csc(C2CCN(C(=O)/C(=C/c3ccccc3)NC(=O)c3ccccc3)CC2)n1 [Compound 30, (Z)-N-[1-[[[4-[2-(ethylthiazole-4-carboxylate)]]-1-piperidinyl]carbonyl]-2-phenylethenyl]benzamide] | 82% | 17% | 13% | 7% | 0% | 2% | 2% | 3% | 0% | 9% | 114 to 115 °C | 13% | 4% | 11% | 80 to 95% |  |
| O=C(N/C(=C\c1ccccc1)C(=O)N1CCC(O)(c2ccc(Br)cc2)CC1)c1ccco1 [Compound 13, (Z)-N-[1-[[4-(4-bromophenyl)-4-hydroxy-1-piperidinyl]carbonyl]-2-phenylethenyl]-2-furamide] | 95% | 24% | 21% | 16% | 69% | 16% | 30% | 47% | 26% | 27% | 138 to 140 °C | 15% | 22% | 33% |  | EC90 ([1]; read-out: EC90 against S. sclerotiorum in vitro): 195 µg/mL (≈ 394 µM) |
| O=C(NCc1ccc(Br)cc1)/C(=C/c1ccccc1)NC(=O)C1CC1 [Compound 59, N-[(1Z)-2-phenyl-1-[[(4-bromophenylmethyl)amino]carbonyl]ethenyl]cyclopropanecarboxamide] | 75% | 18% | 19% | 22% | 39% | 8% | 26% | 80% | 41% | 10% | 187 to 189 °C | 16% | 24% | 16% | 60 to 80% |  |
